Laboratory results: patent US6989377B2, “Treating vitamin D responsive diseases” (priority 1999, dated 2006)
Marks after values point to notes of the source that are not given here.

Tests used:
Type in all cases: in vivo, mouse
[1] = test system: DSS-induced colitis in 129X1/SvJ male mice; test: Treatment at the first signs of DSS-induced colitis in 129X1/SvJ mice; settings: 50 ng/d from day 4 of 1% DSS
Text: The 129×1/SvJ strain is genetically similar to the 129/Ola strain and to the 129/SvPas strain, which is less susceptible to DSS-induced colitis than C3H/HeJ.

[2] = test system: DS-induced colitis in C3H/HeJ male mice; test: Calcitriol prevention of DS-induced colitis
Experimental: Fecal hemoglobin was analyzed in the mice to determine bleeding from a breached intestinal barrier. […] Co., Needham Heights, Mass.), the supernatants were decanted into fresh tubes and stored frozen at -20° C. Hemoglobin in the supernatants was analyzed by a method adapted from Saitoh et al., Digestion, 56:67-75, 1995, and Liem et al., Anal. Biochem., 98:388-393, 1979, with rat hemoglobin as standard (Sigma-Aldrich). The supernatants were diluted 1:25 in TBS. […] The reaction was stopped with 100 μL of 2 M phosphoric acid, and the absorbance at 450 nm was measured with an MRX Revelation Microplate Reader (DYNEX Technologies). […] The mice were euthanized with an i.p. injection of pentobarbital. […] The fixed tissue was embedded in paraffin, sectioned at 6 μm, stained with hematoxylin and eosin, and examined by light microscopy. Scoring was conducted by a veterinary pathologist in blinded fashion. […] Clin. Invest., 98:1010-1020, 1996. The scores were summed to provide a total colitis score for each mouse. […] In particular, age-matched C3H/HeJ male mice were fed a synthetic diet (see Example 6) with or without calcitriol or prednisolone for one week. […] The mice were weighed every 3-4 days thereafter. […] Serum and colon tissue were collected on day 28. Most assays were performed as described in Example 6, and the terminal serum calcium assay was performed as described below. […] The serum was decanted and stored frozen at -20° C. The samples, standards, and buffer blanks (2 μL each) were aliquoted into duplicate wells of a 96-well plate. Calcium reagent working solution (0.25 mL), prepared according to the manufacturer's directions (Sigma Diagnostics, St. Louis, Mo.), was added to each well, and the absorbance at 570 nm was measured.

[3] = test system: DS-induced colitis in C3H/HeJ male mice; test: Calcitriol prevention of DS-induced colitis; settings: 50 ng/day in diet from day −7; 1% DS days 0 to 5; terminated day 27
male C3H/HeJ mice = test: DS-induced colitis model in mice (weight, mortality, fecal hemoglobin, colon histopathology); settings: for Colon Histopathology (sum): total colitis score 0 to 16
Text: This Example describes the generation of a mouse model for dextran sulfate (DS) induced colitis. This DS-induced colitis model was adapted from Okayasu et al. (1990) for use with a synthetic diet. In this Example, male C3H/HeJ mice were used, as these mice are highly susceptible to DS-induced colitis. Initially, mice were given 3.5% DS w/v in acidified water for 5 days, followed by acidified water without DS, and continuously fed a synthetic diet (synthetic diet described in Smith and Hayes, PNAS, USA, 84:5878-5882, 1987). […] These mice shunned the water containing DS, and met their hydration needs by consuming the synthetic diet (which is approximately 60% water by weight). A second group of mice were given 3.5% DS w/v in acidified water for 5 days, followed by acidified water without DS, and continuously fed laboratory chow (Purina mouse chow #5008) as described in Mahler et al., Gastrointest, Liver Physiol., 37:G544-G551 (1996). These mice, consuming an average of 0.57 g DS/mouse, lost weight (controls 26.1±0.7 g; DS group 22.8±0.3 g), and had hemoglobin (Hg) in the stool (controls 0±0 mg Hg/g stool; DS group 11.4 mg Hg/g stool).
To adapt the DS-induced model for use with the synthetic diet (see Smith and Hayes, 1987), a third group of mice were given graded amounts of DS in acidified water and a synthetic diet for 5 days, followed by acidified water and the synthetic diet without DS. These mice were weighed twice weekly and subjected to various other assays, including: fecal hemoglobin analysis, and histopathologic analysis. The results are presented below in Tables 2 and 3.
Fecal hemoglobin was analyzed in the mice to determine bleeding from a breached intestinal barrier. Fresh stool samples were collected from individual mice, dried overnight, weighed, and suspended in 0.5 mL of TRIS-buffered saline (TBS; 25 mM TRIS, 0.15 M NaCl, pH 7.6). The stool samples were centrifuged (10,000×g for 10 min) at room temperature in a Micromax centrifuge (International Equip. Co., Needham Heights, Mass.), the supernatants were decanted into fresh tubes and stored frozen at −20° C. Hemoglobin in the supernatants was analyzed by a method adapted from Saitoh et al., Digestion, 56:67-75, 1995, and Liem et al., Anal. Biochem., 98:388-393, 1979, with rat hemoglobin as standard (Sigma-Aldrich). The supernatants were diluted 1:25 in TBS. The assay was done in round-bottom, polystyrene, 96 well microtiterplates (#3555, DYNEX Technologies, Chantily, Va.). The samples, standards, and buffer blanks (20 μL each) were incubated in duplicate for 10 min with 100 μL of a substrate solution made with 9 volumes 3,3′5,5′-tetramethylbenzidine dihydrochloride peroxide solution (Turbo TMB-ELISA, Pierce Chemical Co., Rockford, Ill.) and 1 volume of hydrogen peroxide solution (Stable Peroxide Substrate Buffer, Pierce Chemical Co.). The reaction was stopped with 100 μL of 2 M phosphoric acid, and the absorbance at 450 nm was measured with an MRX Revelation Microplate Reader (DYNEX Technologies). The fecal hemoglobin assay working range was 1 to 100 μg/mL sample.
The mice were euthanized with an i.p. injection of pentobarbital. The cecal and rectal GI tract segments were collected, cut longitudinally, flushed with 10% neutral-buffered formalin, arranged in a spiral pattern in a cassette, and fixed in formalin. The fixed tissue was embedded in paraffin, sectioned at 6 μm, stained with hematoxylin and eosin, and examined by light microscopy. Scoring was conducted by a veterinary pathologist in blinded fashion. Each colon segment (proximal, medial, and distal colon, and rectum) was given a score from 0 to 4, based on the criteria described by Berg et al., J. Clin. Invest., 98:1010-1020, 1996. The scores were summed to provide a total colitis score for each mouse. The total colitis score could range from 0 (no pathology in any segment) to 16 (grade 4 lesions in all colon segments).

[4] = 1% DS in drinking water and synthetic diet, days 0 to 5
[5] = 1.5% DS in drinking water and synthetic diet, days 0 to 5
[6] = 2.0% DS in drinking water and synthetic diet, days 0 to 5
[7] = 3.0% DS in drinking water, laboratory chow

## C[C@]12C=CC(=O)C=C1CC[C@@H]1[C@@H]2[C@@H](O)C[C@@]2(C)[C@H]1CC[C@]2(O)C(=O)CO [Prednisolone, prednisolone]
[1]
  Colon Histopathology, Distal colon: 2.0 ± 0.3
  Colon Histopathology, Middle colon: 0.2 ± 0.3
  Colon Histopathology, Rectum + anus: 0.8 ± 1.1
  Colon histopathology, Proximal colon: 0.7 ± 0.4
  Colon histopathology, Sum: 3.7 ± 1.3
[1]; 1 cycle, terminated 21 days later
  Peak fecal hemoglobin: 0.4 ± 0.6 mg/g
[1]; terminated 21 days later
  Terminal Serum Ca: 8.3 ± 1.3 mg/dL
  Terminal weight: 26.5 ± 02.0 g
[2]; 50 ng/day in diet from day −7, 1% DS days 0 to 5
  Peak Hg in Stool: 12.3 ± 10.0 mg/g
[2]; 50 ng/day in diet from day −7, 1% DS days 0 to 5, terminated day 27
  Terminal serum Ca++: 10.5 ± 1.2 mg/dL
[2]; 50 ng/day, 1% DS, score 0 to 4
  Colon Histopathology, Distal colon: 1.1 ± 0.4
  Colon histopathology, Medial colon: 0.3 ± 0.5
  Colon histopathology, Proximal colon: 1.0 ± 0
  Colon histopathology, Rectum: 2.9 ± 1.1
[2]; 50 ng/day, 1% DS, total score 0 to 16
  Colon histopathology, Sum: 5.3 ± 1.4
[3]
  Terminal weight: 29.4 ± 1.4 g

## dextran sulfate [DS]
Male C3H/HeJ mice; 1% DS in acidified drinking water and synthetic diet, days 0 to 5
  Weight change (%, day 0-11): 2.1 ± 0.9%
Male C3H/HeJ mice; [4]
  Mortality (%): 0%
  Peak Hg in Stool: 1.8 mg/g
Male C3H/HeJ mice; 1% DS in drinking water and synthetic diet
  Colon Histopathology (sum): 6.3 ± 3.5
Male C3H/HeJ mice; [5]
  Mortality (%): 66%
  Peak Hg in Stool: 16.7 mg/g
  Weight change (%, day 0-11): −12.4 ± 0.7%
Male C3H/HeJ mice; 1.5% DS in drinking water and synthetic diet
  Colon Histopathology (sum): 6.5
Male C3H/HeJ mice; [6]
  Mortality (%): 100%
  Peak Hg in Stool: 31.7 mg/g
Male C3H/HeJ mice; 2.0% DS in drinking water and synthetic diet, weight change day 0 to 6, when mortality reached 100%
  Weight change (%, day 0-11): −17.5 ± 0.2^b %
Male C3H/HeJ mice; [7]
  Mortality (%): 0%
  Peak Hg in Stool: 11.4 mg/g
  Weight change (%, day 0-11): −5.4%
  Colon Histopathology (sum): 9.5 ± 0.9
Male C3H/HeJ mice; 3.5% DS w/v in acidified water for 5 days, laboratory chow
  Hemoglobin (Hg) in the stool: 11.4 mg Hg/g stool
Male C3H/HeJ mice; 3.5% DS w/v in acidified water for 5 days, laboratory chow, controls 26.1±0.7 g
  Body weight: 22.8 ± 0.3 g
Male C3H/HeJ mice; 3.5% DS w/v in acidified water for 5 days, synthetic diet (mice shunned the DS water)
  Signs of colitis (diarrhea, blood in the stool, weight loss): no signs of colitis
